ChEMBL document CHEMBL4007510, “N6-Substituted 5'-N-Methylcarbamoyl-4'-selenoadenosines as Potent and Selective A3 Adenosine Receptor Agonists with Unusual Sugar Puckering and Nucleobase Orientation” (J Med Chem, 2017)
Activity calls are given as the source filed them. No cut-off for these calls is given here.

Key:
[1] = biological target: T1, Adenosine receptor A1 (Homo sapiens, UniProt P30542); assay: Displacement of […] from human adenosine A1 receptor expressed in CHO cells after 60 mins by liquid scintillation analyzer; format: cell-based
T1 sequence (P30542 whole entry): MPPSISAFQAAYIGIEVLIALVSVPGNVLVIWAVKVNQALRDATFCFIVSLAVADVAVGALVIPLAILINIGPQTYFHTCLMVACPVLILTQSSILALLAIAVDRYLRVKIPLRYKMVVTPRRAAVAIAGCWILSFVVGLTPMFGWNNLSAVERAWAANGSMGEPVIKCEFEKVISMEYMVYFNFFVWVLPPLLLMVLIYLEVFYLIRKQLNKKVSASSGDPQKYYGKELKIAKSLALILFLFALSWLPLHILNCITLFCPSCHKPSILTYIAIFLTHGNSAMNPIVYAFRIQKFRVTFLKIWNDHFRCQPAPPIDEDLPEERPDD

[2] = biological target: T2, Adenosine receptor A3 (Homo sapiens, UniProt P0DMS8); assay: Displacement of [125I]I-AB-MECA from human adenosine A3 receptor expressed in CHO cells after 60 mins by gamma counting analysis; format: cell-based
T2 sequence (P0DMS8 whole entry): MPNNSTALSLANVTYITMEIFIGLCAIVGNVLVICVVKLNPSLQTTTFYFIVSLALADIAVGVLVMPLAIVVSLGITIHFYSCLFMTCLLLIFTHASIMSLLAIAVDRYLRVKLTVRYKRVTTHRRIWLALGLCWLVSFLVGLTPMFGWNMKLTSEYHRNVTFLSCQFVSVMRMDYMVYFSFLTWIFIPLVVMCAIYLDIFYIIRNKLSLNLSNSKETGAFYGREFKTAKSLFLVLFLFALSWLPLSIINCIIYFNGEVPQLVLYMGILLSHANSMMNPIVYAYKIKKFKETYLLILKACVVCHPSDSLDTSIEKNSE

[3] = biological target: T3, Adenosine receptor A2a (Homo sapiens, UniProt P29274); assay: Displacement of [3H]CGS21680 from human adenosine A2 receptor expressed in HEK293 cells at 10 uM after 60 mins by liquid scintillation analyzer relative to control; format: cell-based
T3 sequence (P29274 whole entry): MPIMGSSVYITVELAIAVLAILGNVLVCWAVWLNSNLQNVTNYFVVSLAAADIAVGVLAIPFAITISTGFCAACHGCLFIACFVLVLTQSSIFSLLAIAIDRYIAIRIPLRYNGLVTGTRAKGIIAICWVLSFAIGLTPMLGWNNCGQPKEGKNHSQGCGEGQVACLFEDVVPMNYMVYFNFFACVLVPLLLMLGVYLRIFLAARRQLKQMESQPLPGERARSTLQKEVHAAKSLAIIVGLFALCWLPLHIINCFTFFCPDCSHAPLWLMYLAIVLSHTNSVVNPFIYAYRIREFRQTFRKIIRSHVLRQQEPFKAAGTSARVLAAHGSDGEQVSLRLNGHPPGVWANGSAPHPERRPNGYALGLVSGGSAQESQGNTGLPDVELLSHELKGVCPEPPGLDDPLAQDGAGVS

[4] = biological target: T4, Adenosine receptor A3 (Homo sapiens) (UniProt P0DMS8); assay: Agonist activity at human adenosine A3 receptor expressed in CHO cells assessed as decrease in forskolin induced cAMP formation preincubated for 10 mins followed by forskolin challenge measured after 15 mins by AlphaScreen assay relative to adenosine-5'-N- ethyluronamide; format: functional, cell-based; design: concentration or dose not given beside the values
T4 sequence (whole entry): T2 sequence (P0DMS8 whole entry)

[5] = biological target: T3, Adenosine receptor A2a; assay: Displacement of [3H]CGS21680 from human adenosine A2A receptor expressed in HEK293 cells after 60 mins by liquid scintillation analyzer; format: cell-based
[6] = Cytotoxicity against human MRC9 up to 20 uM; format: cell-based
[7] = biological target: T2, Adenosine receptor A3; assay: Agonist activity at human adenosine A3 receptor expressed in CHO cells assessed as decrease in forskolin induced cAMP formation preincubated for 10 mins followed by forskolin challenge measured after 15 mins by AlphaScreen assay; format: functional, cell-based
[8] = test system: Microglia; assay: Antimigratory activity in Sprague-Dawley rat microglial cells assessed as inhibition of MCP-1 mediated cell migration at 100 nM after 20 mins by inverted confocal microscopy; format: functional, cell-based
[9] = Cytotoxicity against Sprague-Dawley rat microglial cells assessed as effect on cell viability up to 50 uM after 24 hrs by presto blue assay; format: cell-based; details: microglia
[10] = biological target: T5, Adenosine receptor A1 (Homo sapiens) (UniProt P30542); assay: Displacement of […] from human adenosine A1 receptor expressed in CHO cells at 10 uM after 60 mins by liquid scintillation analyzer relative to control; format: cell-based
T5 sequence (whole entry): T1 sequence (P30542 whole entry)

Row | Structure (SMILES) | Ki [1] [nM] | Ki [2] [nM] | inhibition [3] [%] | Activity [4] [%] | Ki [5] [nM] | Activity [6] | EC50 [7] [nM] | inhibition [8] | Activity [9] | inhibition [10] [%]
1 | CNC(=O)[C@H]1[Se][C@@H](n2cnc3c(NC)ncnc32)[C@H](O)[C@@H]1O | 2060 | 1.49 | 18 | 108 |  |  |  |  |  | 
2 | CNC(=O)[C@H]1[Se][C@@H](n2cnc3c(NCc4ccccc4Cl)ncnc32)[C@H](O)[C@@H]1O | 1090 | 4.41 |  | 85 | 1160 |  |  |  |  | 
3 | CNC(=O)[C@H]1[Se][C@@H](n2cnc3c(NC4CC4)ncnc32)[C@H](O)[C@@H]1O | 83.5 | 2.49 | 54 | 92 |  |  |  |  |  | 
4 | CNC(=O)[C@H]1[Se][C@@H](n2cnc3c(NCc4ccc5ccccc5c4)ncnc32)[C@H](O)[C@@H]1O | 440 | 1.76 |  | 109 | 195 |  |  |  |  | 
5 | CNC(=O)[C@H]1[Se][C@@H](n2cnc3c(NC4CCC4)nc(Cl)nc32)[C@H](O)[C@@H]1O | 61.7 | 1 |  | 86.7 | 899 |  |  |  |  | 
6 | CNC(=O)[C@H]1[Se][C@@H](n2cnc3c(NCc4ccccc4OC)ncnc32)[C@H](O)[C@@H]1O | 1880 | 3.75 |  | 97 | 1260 |  |  |  |  | 
7 | CNC(=O)[C@H]1[Se][C@@H](n2cnc3c(NCc4cccc(Cl)c4)nc(Cl)nc32)[C@H](O)[C@@H]1O | 232 | 1.96 |  | 99.7 | 238 |  |  |  |  | 
8 | CNC(=O)[C@H]1S[C@@H](n2cnc3c(NCc4cccc(I)c4)ncnc32)[C@H](O)[C@@H]1O |  |  |  | 100 |  |  |  |  |  | 
9 | CNC(=O)[C@H]1[Se][C@@H](n2cnc3c(NC4CCCC4)ncnc32)[C@H](O)[C@@H]1O | 25.2 | 7.07 |  | 77 | 1090 |  |  |  |  | 
10 | CNC(=O)[C@H]1[Se][C@@H](n2cnc3c(NCc4cccc(I)c4)nc(Cl)nc32)[C@H](O)[C@@H]1O | 311 | 4.2 |  | 94.1 | 1200 |  |  |  |  | 
11 | CNC(=O)[C@H]1[Se][C@@H](n2cnc3c(NC4CCCC4)nc(Cl)nc32)[C@H](O)[C@@H]1O | 59.4 | 3.56 |  | 92.5 | 1120 |  |  |  |  | 
12 | CNC(=O)[C@H]1[Se][C@@H](n2cnc3c(NCc4cccc(Cl)c4)ncnc32)[C@H](O)[C@@H]1O | 570 | 3.45 |  | 80 | 555 | Non-Toxic |  |  |  | 
13 | CNC(=O)[C@H]1[Se][C@@H](n2cnc3c(NC4CCC4)ncnc32)[C@H](O)[C@@H]1O | 37.5 | 1.39 |  | 82 | 1080 |  |  |  |  | 
14 | CNC(=O)[C@H]1[Se][C@@H](n2cnc3c(NCc4cccc(I)c4)ncnc32)[C@H](O)[C@@H]1O | 480 | 0.57 |  | 91 | 1080 | Non-Toxic | 2.7 | Active | Non-Toxic | 
15 | CNC(=O)[C@H]1[Se][C@@H](n2cnc3nc(Cl)nc(NCc4cccc(I)c4)c32)[C@H](O)[C@@H]1O |  | 7360 | 23 | 14 |  |  |  |  |  | 7
16 | CNC(=O)[C@H]1[Se][C@@H](n2cnc3c(N[C@@H]4C[C@H]4c4ccccc4)ncnc32)[C@H](O)[C@@H]1O | 420 | 3.93 |  | 89 | 2480 |  |  |  |  | 
17 | CNC(=O)[C@H]1[Se][C@@H](n2cnc3c(NCc4cccc(F)c4)nc(Cl)nc32)[C@H](O)[C@@H]1O |  | 3.35 | 42 | 106 |  |  |  |  |  | 37.3
18 | CNC(=O)[C@H]1S[C@@H](n2cnc3c(NCc4cccc(I)c4)nc(Cl)nc32)[C@H](O)[C@@H]1O |  |  |  |  |  |  |  | Active | Non-Toxic | 
19 | CNC(=O)[C@H]1[Se][C@@H](n2cnc3ncnc(NCc4cccc(I)c4)c32)[C@H](O)[C@@H]1O |  | 4180 | 13 | 0.2 |  |  |  |  |  | 26
20 | CNC(=O)[C@H]1[Se][C@@H](n2cnc3c(NCc4cccc(Br)c4)ncnc32)[C@H](O)[C@@H]1O | 220 | 0.9 |  | 91 | 560 | Non-Toxic |  |  |  | 
21 | CNC(=O)[C@H]1[Se][C@@H](n2cnc3c(NCc4cccc(Br)c4)nc(Cl)nc32)[C@H](O)[C@@H]1O | 156 | 1.99 |  | 106 | 1230 |  |  |  |  | 
22 | CNC(=O)[C@H]1[Se][C@@H](n2cnc3c(NCc4cccc(F)c4)ncnc32)[C@H](O)[C@@H]1O | 3310 | 2.3 |  | 74 | 1350 | Non-Toxic |  |  |  | 
23 | CNC(=O)[C@H]1[Se][C@@H](n2cnc3c(NC4CC4)nc(Cl)nc32)[C@H](O)[C@@H]1O | 186 | 1.9 | 30.3 | 83.6 |  |  |  |  |  | 
